Data reported in patent publication US20230310388A1, “Methods and Compositions for Treating Fungal Infections” (Neoculi Pty Ltd, priority 2020, published 2023).
Values after ≈ are worked out from the molar mass of the structure shown.

Tests used:
[1] = test system: Candida albicans; test: CLSI broth microdilution MIC (Example 3); format: cell-based
Description: (§1) Antifungal minimum inhibitory concentration (MIC) testing was undertaken as recommended by the CLSI. Briefly, antifungal susceptibility tests were performed for amphotericin B, robenidine (NCL812) and 5 robenidine analogs (NCL062, NCL195, NCL219, NCL259, NCL265) by standard broth microdilution method (CLSI) in RPMI 1640. Various concentrations (ranging from high to low) of the selected compounds were prepared in RPMI 1640 medium by double dilution in 96-well microtitre plates. Each well contained an inoculum of approximately 2×10^3 cells/mL. The wells without addition of drugs served as negative (no inoculum) and positive (inoculum only) growth controls. Microtitre plates were incubated at 35° C. for 24-48 hours. […] Antifungal MICs were determined for each isolate in duplicate; if the values obtained were different, the MIC test was repeated a third time. Antifungal susceptibility tests were performed for amphotericin B and NCL analogs by standard broth microdilution method (CLSI). Briefly, various concentrations (ranging from high to low) of the selected compounds were prepared in RPMI 1640 medium by double dilution in the 96-well plates. Each well contained an inoculum of approximately 2×10^3 cells/mL. The wells without addition of drugs served as a negative control. Micro plates were incubated at 35° C. for 48 hour and read spectrophotometrically at 600 nm, using a microplate reader (Multiskan-EX; Thermo Elect. Corp., USA).

[2] = test system: Candida parapsilosis; test: CLSI broth microdilution MIC (Example 3); format: cell-based; conditions: Candida parapsilosis ATCC 22019
Description: as §1

[3] = test system: Candida albicans; test: CLSI broth microdilution MIC (Example 4); format: cell-based; conditions: for antifungal activity against the two isolates of Candida albicans: summary in words
Outline: (§2)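 CLSI broth microdilution in RPMI 1640 with two-fold compound dilutions and inoculum about 2×10^3 cells/mL. Plates incubated 35° C for 24-48 hours; MICs determined in duplicate, with a third test when the duplicates differed.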

[4] = test system: Cryptococcus neoformans; test: CLSI broth microdilution MIC (Example 4); format: cell-based
Outline: as §2

[5] = test system: Candida albicans; test: CLSI broth microdilution MIC (Example 5); format: cell-based
Description: (§3) Antifungal minimum inhibitory concentration (MIC) testing was undertaken as recommended by the CLSI. Briefly, antifungal susceptibility tests were performed for amphotericin B, robenidine (NCL812) and robenidine analogs (NCL23, NCL24, NCL97, NCL113, NCL115, NCL195, NCL219, NCL220, NCL259, NCL265) by standard broth microdilution method (CLSI) in RPMI 1640. Various concentrations (ranging from high to low) of the selected compounds were prepared in RPMI 1640 medium by double dilution in 96-well microtitre plates. Each well contained an inoculum of approximately 2×10^3 cells/mL. The wells without addition of drugs served as negative (no inoculum) and positive (inoculum only) growth controls. Microtitre plates were incubated at 35° C. for 24-48 hours. […] Antifungal MICs were determined for each isolate in duplicate; if the values obtained were different, the MIC test was repeated a third time.

[6] = test system: Cryptococcus neoformans; test: CLSI broth microdilution MIC (Example 5); format: cell-based
Description: as §3

[7] = test system: Candida albicans; test: CLSI broth microdilution MIC (Example 6); format: cell-based
Description: (§4) Antifungal minimum inhibitory concentration (MIC) testing was undertaken as recommended by the CLSI (1). Briefly, antifungal susceptibility tests were performed for amphotericin B, robenidine (NCL812) and 10 robenidine analogs (NCL023, NCL024, NCL097, NCL113, NCL115, NCL195, NCL219, NCL220, NCL259, NCL265) by standard broth microdilution method (CLSI) in RPMI 1640. Various concentrations (ranging from high to low) of the selected compounds were prepared in RPMI 1640 medium by double dilution in 96-well microtitre plates. Each well contained an inoculum of approximately 2×10^3 cells/mL. The wells without addition of drugs served as negative (no inoculum) and positive (inoculum only) growth controls. Microtitre plates were incubated at 35° C. for 24-48 hours. […] Antifungal MICs were determined for each isolate in duplicate; if the values obtained were different, the MIC test was repeated a third time.

[8] = test system: Cryptococcus neoformans; test: CLSI broth microdilution MIC (Example 6); format: cell-based
Description: as §4

[9] = test system: C. gattii; test: CLSI broth microdilution MIC (Example 6); format: cell-based, Cryptococcus gattii
Description: as §4

[10] = test system: Candida albicans ATCC14053; test: Broth micro-dilution screen at 16 μg/mL and MIC (Example 9); format: cell-based; conditions: for Screen at 16 μg/mL: single concentration 16 μg/mL, Growth or No growth of C. albicans ATCC14053
Description: The antifungal activity of 201 NCL analogs against Candida albicans ATCC14053 in vitro was investigated. A broth micro-dilution method was used, according to CLSI guidelines as described. NCL analogs were dissolved in DMSO and originally screened at a single concentration of 16 μg/mL.

[11] = Candida albicans ATCC 90028, 1st
[12] = Candida albicans ATCC 90028, 2nd
[13] = clinical isolate C. albicans 12-93301752 Azole Resistant
[14] = clinical isolate C. albicans 14-90045999 Azole Resistant
[15] = clinical isolate C. albicans 15-45171061
[16] = clinical isolate C. albicans 15-91329871
[17] = clinical isolate C. albicans 16-24136919 Azole Resistant
[18] = clinical isolate C. albicans 16-46177400
[19] = clinical isolate C. albicans 16-90050810
[20] = clinical isolate C. albicans 16-90054237
[21] = clinical isolate C. albicans 18-144-00196
[22] = clinical isolate C. albicans 18-148-08188 Azole Resistant
[23] = human clinical isolate C. neoformans serotype A/D hybrid
[24] = human clinical isolate C. neoformans var grubii 16-90050434
[25] = human clinical isolate C. neoformans var grubii 17-90028233
[26] = human clinical isolate C. neoformans var grubii 17-93996464
[27] = human clinical isolate C. neoformans var grubii 17-93996964
[28] = human clinical isolate C. gatti 17-90232099
[29] = human clinical isolate C. gattii 16-90050373
[30] = human clinical isolate C. gattii 17-90028211
[31] = human clinical isolate C. gattii 17-90028217
[32] = human clinical isolate C. gattii 17-90028242

`C/C(=N\NC(=N)N/N=C(\C)c1ccc(C(C)(C)C)cc1)c1ccc(C(C)(C)C)cc1.Cl` [NCL219] was tested, and the MIC [1, 11] was >32 µg/mL, the MIC [1, 12] was >32 µg/mL and the MIC ([1]; Candida albicans, 1st) was >32 µg/mL. For the same molecule, the MIC ([1]; Candida albicans, 2nd) was >32 µg/mL, the MIC ([2]; 1st) was >32 µg/mL and the MIC ([2]; 2nd) was >32 µg/mL. The “MIC at 24-48 hours” value ([3]; Candida albicans ATCC 90028) was 32 µg/mL, the “MIC at 24-48 hours” value ([3]; Candida albicans SA3) was 16 µg/mL and the “antifungal activity against the two isolates of Candida albicans” value [3] was “high antifungal activity”. The “MIC at 24-48 hours” value ([4]; Cryptococcus neoformans SA1) was 2 µg/mL, the “MIC at 24-48 hours” value ([4]; Cryptococcus neoformans SA2) was 2 µg/mL and the MIC ([5]; C. albicans SA3) was 16 µg/mL. For the same molecule, the MIC ([5]; Candida albicans ATCC 90028) was 32 µg/mL, the MIC [5, 13] was >16 µg/mL and the MIC [5, 14] was 4 µg/mL. For the same molecule, the MIC [5, 15] was 8 µg/mL, the MIC [5, 16] was >16 µg/mL and the MIC [5, 17] was >16 µg/mL. The MIC [5, 18] was >16 µg/mL, the MIC [5, 19] was >16 µg/mL and the MIC [5, 20] was >16 µg/mL. The MIC [5, 21] was >16 µg/mL, the MIC [5, 22] was >16 µg/mL and the “activity against one or more isolates of Cryptococcus neoformans and Candida albicans” value ([5]; summary in words) was “highly active”. The MIC ([6]; Cryptococcus neoformans SA1) was 2 µg/mL, the MIC ([6]; Cryptococcus neoformans SA2) was 2 µg/mL and the MIC ([7]; C. albicans SA3) was 16 µg/mL. The MIC ([7]; Candida albicans ATCC 90028) was 32 µg/mL, the MIC ([8]; Cryptococcus neoformans SA1) was 2 µg/mL and the MIC ([8]; Cryptococcus neoformans SA2) was 2 µg/mL. For the same molecule, the MIC [8, 23] was >32 µg/mL, the MIC [8, 24] was >32 µg/mL and the MIC [8, 25] was >32 µg/mL. The MIC [8, 26] was >32 µg/mL, the MIC [8, 27] was >32 µg/mL and the MIC [9, 28] was >32 µg/mL. For the same molecule, the MIC [9, 29] was >32 µg/mL, the MIC [9, 30] was >32 µg/mL and the MIC [9, 31] was >32 µg/mL. For the same molecule, the MIC [9, 32] was >32 µg/mL, the MIC ([10]; C. albicans ATCC14053, test range 0.25-64 μg/mL, duplicate) was >64 µg/mL and the “Screen at 16 μg/mL” value [10] was “Growth”.

Molecule `C[C@@H]1[C@H](O)[C@@H](C)/C=C/C=C/C=C/C=C/C=C/C=C/C=C/[C@H](O[C@@H]2O[C@H](C)[C@@H](O)[C@H](N)[C@@H]2O)C[C@@H]2O[C@](O)(C[C@@H](O)C[C@@H](O)[C@H](O)CC[C@@H](O)C[C@@H](O)CC(=O)O[C@H]1C)C[C@H](O)[C@H]2C(=O)O` [Amphotericin B, reference compound] has an MIC [1, 11] of 0.25 µg/mL (≈ 0.271 µM), an MIC [1, 12] of 0.5 µg/mL (≈ 0.541 µM) and an MIC ([1]; Candida albicans, 1st) of 0.5 µg/mL (≈ 0.541 µM). The MIC ([1]; Candida albicans, 2nd) was 1 µg/mL (≈ 1.08 µM), the MIC ([2]; 1st) was 0.5 µg/mL (≈ 0.541 µM) and the MIC ([2]; 2nd) was 0.5 µg/mL (≈ 0.541 µM). The “MIC at 24-48 hours” value ([3]; Candida albicans ATCC 90028) was 0.5 µg/mL (≈ 0.541 µM), the “MIC at 24-48 hours” value ([3]; Candida albicans SA3) was 2 µg/mL (≈ 2.16 µM) and the “MIC at 24-48 hours” value ([4]; Cryptococcus neoformans SA1) was 0.3 µg/mL (≈ 0.325 µM). The “MIC at 24-48 hours” value ([4]; Cryptococcus neoformans SA2) was 0.3 µg/mL (≈ 0.325 µM), the MIC ([5]; C. albicans SA3) was 2 µg/mL (≈ 2.16 µM) and the MIC ([5]; Candida albicans ATCC 90028) was 0.5 µg/mL (≈ 0.541 µM). It also gave an MIC [5, 13] of 0.5 µg/mL (≈ 0.541 µM), an MIC [5, 14] of 0.25 µg/mL (≈ 0.271 µM) and an MIC [5, 15] of 0.125 µg/mL (≈ 0.135 µM). For the same molecule, the MIC [5, 16] was 0.125 µg/mL (≈ 0.135 µM), the MIC [5, 17] was 0.5 µg/mL (≈ 0.541 µM) and the MIC [5, 18] was 0.25 µg/mL (≈ 0.271 µM). For the same molecule, the MIC [5, 19] was 0.125 µg/mL (≈ 0.135 µM), the MIC [5, 20] was 0.125 µg/mL (≈ 0.135 µM) and the MIC [5, 21] was 0.25 µg/mL (≈ 0.271 µM). The MIC [5, 22] was 0.5 µg/mL (≈ 0.541 µM), the MIC ([6]; Cryptococcus neoformans SA1) was 0.25 µg/mL (≈ 0.271 µM) and the MIC ([6]; Cryptococcus neoformans SA2) was 0.25 µg/mL (≈ 0.271 µM). It also gave an MIC ([7]; C. albicans SA3) of 2 µg/mL (≈ 2.16 µM), an MIC ([7]; Candida albicans ATCC 90028) of 0.5 µg/mL (≈ 0.541 µM) and an MIC ([8]; Cryptococcus neoformans SA1) of 0.3 µg/mL (≈ 0.325 µM). For the same molecule, the MIC ([8]; Cryptococcus neoformans SA2) was 0.3 µg/mL (≈ 0.325 µM), the MIC [8, 23] was 0.5 µg/mL (≈ 0.541 µM) and the MIC [8, 24] was 1 µg/mL (≈ 1.08 µM). For the same molecule, the MIC [8, 25] was 2 µg/mL (≈ 2.16 µM), the MIC [8, 26] was 1 µg/mL (≈ 1.08 µM) and the MIC [8, 27] was 1 µg/mL (≈ 1.08 µM). The MIC [9, 28] was 1 µg/mL (≈ 1.08 µM), the MIC [9, 29] was 1 µg/mL (≈ 1.08 µM) and the MIC [9, 30] was 1 µg/mL (≈ 1.08 µM). The MIC [9, 31] was 0.5 µg/mL (≈ 0.541 µM) and the MIC [9, 32] was 1 µg/mL (≈ 1.08 µM).

With `C/C(=N\NC(=N)N/N=C(\C)c1ccc(Cl)cc1)c1ccc(Cl)cc1.Cl` [NCL062] the MIC [1, 11] was 1 µg/mL, the MIC [1, 12] was 1 µg/mL and the MIC ([1]; Candida albicans, 1st) was 0.5 µg/mL. For the same molecule, the MIC ([1]; Candida albicans, 2nd) was 1 µg/mL, the MIC ([2]; 1st) was 0.5 µg/mL and the MIC ([2]; 2nd) was 1 µg/mL. For the same molecule, the “MIC at 24-48 hours” value ([3]; Candida albicans ATCC 90028) was 1 µg/mL, the “MIC at 24-48 hours” value ([3]; Candida albicans SA3) was 1 µg/mL and the “antifungal activity against the two isolates of Candida albicans” value [3] was “high antifungal activity”. The “MIC at 24-48 hours” value ([4]; Cryptococcus neoformans SA1) was 1 µg/mL, the “MIC at 24-48 hours” value ([4]; Cryptococcus neoformans SA2) was 1 µg/mL and the “Screen at 16 μg/mL” value [10] was “Growth”.
